Like-named read-outs stand apart in the source and are kept apart here.
Columns and labels:
[1] = test system: Escherichia coli K-12 MG1655; assay: Screening for tolerance in wild-type cells: growth in varying concentrations of neutralized diacid, Biolector; type: cell-based; details: for tlag (lag time), mean / μ (growth rate), mean: neutralized with sodium hydroxide
Experimental: Escherichia coli K-12 MG1655 was grown overnight in M9 minimal medium+1% glucose and subcultured the following morning to an initial OD600 of 0.05 in M9+1% glucose. Cells were grown to mid-exponential phase (OD600 0.7-1.0) and were back-diluted with fresh medium to an OD600 of 0.7. The diluted cells were used to inoculate M9+1% glucose containing varying concentrations of glutaric acid or adipic acid which were neutralized to pH 7.0 with sodium hydroxide, and growth was measured in FlowerPlates in a Biolector microbioreactor system (m2p-labs) at 37° C. with 1000 rpm shaking. The culture volume in each well was 1.4 mL.

[2] = test system: Escherichia coli K-12 MG1655 and evolved isolates; type: cell-based; details: 45 g/L pimelic acid
Experimental: Five colonies from wild-type K-12 MG1655 and 10 individual colonies deriving from each population were inoculated into 300 μL M9+1% glucose in 96 well deepwell plates and incubated in a 300 rpm plate shaker at 37° C. The next day, cells were diluted 10× in M9+1% glucose and 30 μL was transferred into clear-bottomed 96 well half-deepwell plates (with rectangular wells) containing M9+1% glucose and M9+1% glucose+52.78 g/L glutaric acid or 55.56 g/L adipic acid, such that the final concentration of glutaric acid or adipic acid was 47.5 g/L or 50 g/L, respectively. In addition, cryogenic glycerol stocks of the overnight culture were saved in a 96 well plate format. Half deepwell plates were incubated at 37° C. with 225 rpm shaking in a Growth Profiler (Enzyscreen), with optical scans of the plates taken at 15 minute intervals. Green pixel values integrated over a 1 mm diameter circular area in each well were converted to OD600 values using a previously determined calibration between OD600 and green pixel values.
Additionally, each evolved isolate was tested for cross-tolerance toward other dicarboxylic acids of interest. […] All diacids tested were either the neutral sodium salts, or the free diacid was neutralized with sodium hydroxide to pH 7.0 for testing.

`O=C(O)CCCCCC(=O)O` [pimelic acid] was tested, and the “tlag (lag time), mean” value ([1]; 10 g/L) was 1.9 h, the “μ (growth rate), mean” value ([1]; 10 g/L, M9+1% glucose, 37° C) was 0.694 h⁻¹ and the “tlag (lag time), mean” value ([1]; 20 g/L) was 2.4 h. For the same compound, the “μ (growth rate), mean” value ([1]; 20 g/L) was 0.656 h⁻¹, the “tlag (lag time), mean” value ([1]; 25 g/L) was 2.5 h and the “μ (growth rate), mean” value ([1]; 25 g/L) was 0.572 h⁻¹. The “tlag (lag time), mean” value ([1]; 30 g/L) was 3.3 h, the “μ (growth rate), mean” value ([1]; 30 g/L) was 0.560 h⁻¹ and the “tlag (lag time), mean” value ([1]; 35 g/L) was 4.1 h. The “μ (growth rate), mean” value ([1]; 35 g/L) was 0.534 h⁻¹, the “tlag (lag time), mean” value ([1]; 40 g/L) was 4.3 h and the “μ (growth rate), mean” value ([1]; 40 g/L) was 0.439 h⁻¹. The “tlag (lag time), mean” value ([1]; 45 g/L) was 4.6 h, the “μ (growth rate), mean” value ([1]; 45 g/L) was 0.280 h⁻¹ and the “growth of K-12 MG1655” value ([1]; at 45 g/L) was “Robust growth was still observed”. The “growth rate μ (mean)” value ([2]; strain ADIP1-1) was 0.432 h⁻¹, the “lag time tlag (mean)” value ([2]; strain ADIP1-1) was 9.6 h and the “growth rate μ (mean)” value ([2]; strain ADIP1-9) was 0.421 h⁻¹. For the same compound, the “lag time tlag (mean)” value ([2]; strain ADIP1-9) was 8.8 h, the “growth rate μ (mean)” value ([2]; strain ADIP2-5) was 0.474 h⁻¹ and the “lag time tlag (mean)” value ([2]; strain ADIP2-5) was 11.0 h. For the same compound, the “growth rate μ (mean)” value ([2]; strain ADIP2-6) was 0.480 h⁻¹, the “lag time tlag (mean)” value ([2]; strain ADIP2-6) was 10.6 h and the “growth rate μ (mean)” value ([2]; strain ADIP2-10) was 0.479 h⁻¹. For the same compound, the “lag time tlag (mean)” value ([2]; strain ADIP2-10) was 10.8 h, the “growth rate μ (mean)” value ([2]; strain ADIP3-2) was 0.438 h⁻¹ and the “lag time tlag (mean)” value ([2]; strain ADIP3-2) was 8.4 h. For the same compound, the “growth rate μ (mean)” value ([2]; strain ADIP3-4) was 0.435 h⁻¹, the “lag time tlag (mean)” value ([2]; strain ADIP3-4) was 8.5 h and the “growth rate μ (mean)” value ([2]; strain ADIP3-8) was 0.426 h⁻¹. For the same compound, the “lag time tlag (mean)” value ([2]; strain ADIP3-8) was 9.1 h, the “growth rate μ (mean)” value ([2]; strain ADIP4-1) was 0.348 h⁻¹ and the “lag time tlag (mean)” value ([2]; strain ADIP4-1) was 9.9 h. The “growth rate μ (mean)” value ([2]; strain ADIP4-8) was 0.349 h⁻¹, the “lag time tlag (mean)” value ([2]; strain ADIP4-8) was 10.3 h and the “growth rate μ (mean)” value ([2]; strain ADIP5-2) was 0.385 h⁻¹. For the same compound, the “lag time tlag (mean)” value ([2]; strain ADIP5-2) was 8.7 h, the “growth rate μ (mean)” value ([2]; strain ADIP5-6) was 0.483 h⁻¹ and the “lag time tlag (mean)” value ([2]; strain ADIP5-6) was 8.5 h. The “growth rate μ (mean)” value ([2]; strain ADIP6-3) was 0.346 h⁻¹, the “lag time tlag (mean)” value ([2]; strain ADIP6-3) was 10.4 h and the “growth rate μ (mean)” value ([2]; strain ADIP6-9) was 0.278 h⁻¹. The “lag time tlag (mean)” value ([2]; strain ADIP6-9) was 11.1 h, the “growth rate μ (mean)” value ([2]; strain ADIP6-10) was 0.360 h⁻¹ and the “lag time tlag (mean)” value ([2]; strain ADIP6-10) was 9.7 h. The “growth rate μ (mean)” value ([2]; strain ADIP7-2) was 0.393 h⁻¹, the “lag time tlag (mean)” value ([2]; strain ADIP7-2) was 9.0 h and the “growth rate μ (mean)” value ([2]; strain ADIP7-5) was 0.376 h⁻¹. The “lag time tlag (mean)” value ([2]; strain ADIP7-5) was 9.4 h, the “growth rate μ (mean)” value ([2]; strain ADIP8-3) was 0.235 h⁻¹ and the “lag time tlag (mean)” value ([2]; strain ADIP8-3) was 12.8 h. The “growth rate μ (mean)” value ([2]; strain ADIP8-7) was 0.268 h⁻¹, the “lag time tlag (mean)” value ([2]; strain ADIP8-7) was 12.8 h and the “growth rate μ (mean)” value ([2]; strain ADIP8-10) was 0.249 h⁻¹. For the same compound, the “lag time tlag (mean)” value ([2]; strain ADIP8-10) was 12.8 h, the “growth rate μ (mean)” value ([2]; strain GLUT1-3) was 0.369 h⁻¹ and the “lag time tlag (mean)” value ([2]; strain GLUT1-3) was 10.4 h. For the same compound, the “growth rate μ (mean)” value ([2]; strain GLUT1-9) was 0.337 h⁻¹, the “lag time tlag (mean)” value ([2]; strain GLUT1-9) was 11.9 h and the “growth rate μ (mean)” value ([2]; strain GLUT1-10) was 0.399 h⁻¹. The “lag time tlag (mean)” value ([2]; strain GLUT1-10) was 13.1 h, the “growth rate μ (mean)” value ([2]; strain GLUT2-1) was 0.362 h⁻¹ and the “lag time tlag (mean)” value ([2]; strain GLUT2-1) was 11.6 h. For the same compound, the “growth rate μ (mean)” value ([2]; strain GLUT2-9) was 0.349 h⁻¹, the “lag time tlag (mean)” value ([2]; strain GLUT2-9) was 10.3 h and the “growth rate μ (mean)” value ([2]; strain GLUT2-10) was 0.383 h⁻¹. The “lag time tlag (mean)” value ([2]; strain GLUT2-10) was 10.2 h, the “growth rate μ (mean)” value ([2]; strain GLUT3-5) was 0.280 h⁻¹ and the “lag time tlag (mean)” value ([2]; strain GLUT3-5) was 17.6 h. For the same compound, the “growth rate μ (mean)” value ([2]; strain GLUT3-7) was 0.360 h⁻¹, the “lag time tlag (mean)” value ([2]; strain GLUT3-7) was 11.5 h and the “growth rate μ (mean)” value ([2]; strain GLUT3-9) was 0.351 h⁻¹. The “lag time tlag (mean)” value ([2]; strain GLUT3-9) was 15.7 h, the “growth rate μ (mean)” value ([2]; strain GLUT4-1) was 0.378 h⁻¹ and the “lag time tlag (mean)” value ([2]; strain GLUT4-1) was 12.8 h. The “growth rate μ (mean)” value ([2]; strain GLUT4-4) was 0.388 h⁻¹, the “lag time tlag (mean)” value ([2]; strain GLUT4-4) was 13.2 h and the “growth rate μ (mean)” value ([2]; strain GLUT4-10) was 0.371 h⁻¹. The “lag time tlag (mean)” value ([2]; strain GLUT4-10) was 11.5 h, the “growth rate μ (mean)” value ([2]; strain GLUT5-4) was 0.433 h⁻¹ and the “lag time tlag (mean)” value ([2]; strain GLUT5-4) was 12.1 h. For the same compound, the “growth rate μ (mean)” value ([2]; strain GLUT5-5) was 0.420 h⁻¹, the “lag time tlag (mean)” value ([2]; strain GLUT5-5) was 12.8 h and the “growth rate μ (mean)” value ([2]; strain GLUT5-9) was 0.428 h⁻¹. The “lag time tlag (mean)” value ([2]; strain GLUT5-9) was 13.0 h, the “growth rate μ (mean)” value ([2]; strain GLUT6-4) was 0.356 h⁻¹ and the “lag time tlag (mean)” value ([2]; strain GLUT6-4) was 11.7 h. The “growth rate μ (mean)” value ([2]; strain GLUT6-5) was 0.348 h⁻¹, the “lag time tlag (mean)” value ([2]; strain GLUT6-5) was 11.3 h and the “growth rate μ (mean)” value ([2]; strain GLUT6-10) was 0.353 h⁻¹. For the same compound, the “lag time tlag (mean)” value ([2]; strain GLUT6-10) was 12.1 h, the “growth rate μ (mean)” value ([2]; strain GLUT7-2) was 0.349 h⁻¹ and the “lag time tlag (mean)” value ([2]; strain GLUT7-2) was 11.6 h. The “growth rate μ (mean)” value ([2]; strain GLUT7-6) was 0.357 h⁻¹, the “lag time tlag (mean)” value ([2]; strain GLUT7-6) was 14.8 h and the “growth rate μ (mean)” value ([2]; strain GLUT7-7) was 0.335 h⁻¹. For the same compound, the “lag time tlag (mean)” value ([2]; strain GLUT7-7) was 14.1 h, the “growth rate μ (mean)” value ([2]; strain GLUT8-5) was 0.349 h⁻¹ and the “lag time tlag (mean)” value ([2]; strain GLUT8-5) was 11.8 h. The “growth rate μ (mean)” value ([2]; strain GLUT8-6) was 0.184 h⁻¹, the “lag time tlag (mean)” value ([2]; strain GLUT8-6) was 20.9 h and the “growth rate μ (mean)” value ([2]; strain GLUT8-9) was 0.259 h⁻¹. The “lag time tlag (mean)” value ([2]; strain GLUT8-9) was 11.2 h, the “growth rate μ (mean)” value ([2]; strain MG1655 (Table 28)) was 0.275 h⁻¹ and the “lag time tlag (mean)” value ([2]; strain MG1655 (Table 28)) was 13.4 h. The “growth rate μ (mean)” value ([2]; strain MG1655 (Table 29)) was 0.271 h⁻¹ and the “lag time tlag (mean)” value ([2]; strain MG1655 (Table 29)) was 12.4 h.

From patent US20230139445A1, “BACTERIAL CELLS WITH IMPROVED TOLERANCE TO DIACIDS” (priority 2016, published 2023)
